Measured values reported in ChEMBL document CHEMBL6109063, “Discovery of dual PARP/NAMPT inhibitors for the treatment of BRCA wild-type triple-negative breast cancer” (Bioorg Med Chem Lett, 2025).
One block for each compound: values may come before it. Activity calls are given as the source filed them. No cut-off for these calls is given here.

Key:
MDA-MB-436 = experiment: cells; conditions: Homo sapiens
MDA-MB-231 [1] = experiment: cells; conditions: Homo sapiens
[2] = target: Poly [ADP-ribose] polymerase 1 (Homo sapiens, UniProt P09874); experiment: Inhibition of PARP1 (unknown origin)
[3] = target: Nicotinamide phosphoribosyltransferase (Homo sapiens, UniProt P43490); experiment: Inhibition of NAMPT (unknown origin)
MDA-MB-231 [4] = experiment: Induction of apoptosis in human MDA-MB-231 cells harboring wild-type BRCA assessed as early apoptotic cells at 10 uM incubated for 48 hrs by Annexin V-FITC/PI staining based flow cytometry analysis (reference value: 1.60%); format: functional
MDA-MB-231 [5] = experiment: Induction of apoptosis in human MDA-MB-231 cells harboring wild-type BRCA assessed as early apoptotic cells at 10 uM incubated for 48 hrs in presence of GNE-617 by Annexin V-FITC/PI staining based flow cytometry analysis (reference value: 1.60%); format: functional
MDA-MB-231 [6] = experiment: Induction of apoptosis in human MDA-MB-231 cells harboring wild-type BRCA assessed as viable cells at 10 uM incubated for 48 hrs in presence of GNE-617 by Annexin V-FITC/PI staining based flow cytometry analysis (reference value: 94.3%); format: functional; conditions: read-out: Activity
MDA-MB-231 [7] = experiment: Induction of apoptosis in human MDA-MB-231 cells harboring wild-type BRCA assessed as late apoptotic cells at 10 uM incubated for 48 hrs by Annexin V-FITC/PI staining based flow cytometry analysis (reference value: 2.38%); format: functional
MDA-MB-231 [8] = experiment: Induction of apoptosis in human MDA-MB-231 cells harboring wild-type BRCA assessed as necrotic cells at 10 uM incubated for 48 hrs by Annexin V-FITC/PI staining based flow cytometry analysis (reference value: 1.68%); format: functional
MDA-MB-231 [9] = experiment: Induction of apoptosis in human MDA-MB-231 cells harboring wild-type BRCA assessed as necrotic cells at 10 uM incubated for 48 hrs in presence of GNE-617 by Annexin V-FITC/PI staining based flow cytometry analysis (reference value: 1.68%); format: functional
MDA-MB-231 [10] = experiment: Induction of apoptosis in human MDA-MB-231 cells harboring wild-type BRCA assessed as viable cells at 10 uM incubated for 48 hrs by Annexin V-FITC/PI staining based flow cytometry analysis (reference value: 94.3%); format: functional; conditions: read-out: Activity
MDA-MB-231 [11] = experiment: Induction of apoptosis in human MDA-MB-231 cells harboring wild-type BRCA assessed as late apoptotic cells at 10 uM incubated for 48 hrs in presence of GNE-617 by Annexin V-FITC/PI staining based flow cytometry analysis (reference value: 2.38%); format: functional
MDA-MB-231 [12] = experiment: Antimigratory activity against human MDA-MB-231 cells at 10 uM incubated for 48 hrs by wound healing assay; format: functional, cell-based
MDA-MB-231 [13] = experiment: Induction of apoptosis in human MDA-MB-231 cells harboring wild-type BRCA incubated for 48 hrs by Annexin V-FITC/PI staining based flow cytometry analysis; format: functional, cell-based; conditions: dose 5-10 µM
MDA-MB-231 [14] = experiment: Induction of apoptosis in human MDA-MB-231 cells harboring wild-type BRCA assessed as necrotic cells at 5 uM incubated for 48 hrs by Annexin V-FITC/PI staining based flow cytometry analysis (reference value: 1.68%); format: functional
MDA-MB-231 [15] = experiment: Induction of apoptosis in human MDA-MB-231 cells harboring wild-type BRCA assessed as late apoptotic cells at 5 uM incubated for 48 hrs by Annexin V-FITC/PI staining based flow cytometry analysis (reference value: 2.38%); format: functional
MDA-MB-231 [16] = experiment: Antimigratory activity against human MDA-MB-231 cells at 10 uM incubated for 48 hrs by Transwell migration assay; format: functional, cell-based
MDA-MB-231 [17] = experiment: Downregulation of BRCA1 level in human MDA-MB-231 cells at 5 to 10 uM by Western blot analysis; format: functional, cell-based; conditions: dose 5-10 µM
MDA-MB-231 [18] = experiment: Induction of apoptosis in human MDA-MB-231 cells harboring wild-type BRCA assessed as viable cells at 5 uM incubated for 48 hrs by Annexin V-FITC/PI staining based flow cytometry analysis (reference value: 94.3%); format: functional; conditions: read-out: Activity
MDA-MB-231 [19] = experiment: Induction of apoptosis in human MDA-MB-231 cells harboring wild-type BRCA assessed as early apoptotic cells at 5 uM incubated for 48 hrs by Annexin V-FITC/PI staining based flow cytometry analysis (reference value: 1.60%); format: functional
MDA-MB-231 [20] = experiment: Downregulation of Rad51 level in human MDA-MB-231 cells at 5 to 10 uM by Western blot analysis; format: functional, cell-based; conditions: dose 5-10 µM
MDA-MB-231 [21] = experiment: Induction of DNA damage in human MDA-MB-231 cells assessed as increase in gammaH2AX levels at 5 to 10 uM incubated for 48 hrs by DAPI staining based Immunofluorescence analysis; format: functional, cell-based; conditions: dose 5-10 µM
MDA-MB-231 [22] = experiment: Induction of apoptosis in human MDA-MB-231 cells harboring wild-type BRCA assessed as necrotic cells at 15 uM incubated for 48 hrs in presence of Olaparib by Annexin V-FITC/PI staining based flow cytometry analysis (reference value: 1.68%); format: functional
MDA-MB-231 [23] = experiment: Induction of apoptosis in human MDA-MB-231 cells harboring wild-type BRCA assessed as viable cells at 15 uM incubated for 48 hrs by Annexin V-FITC/PI staining based flow cytometry analysis (reference value: 94.3%); format: functional; conditions: read-out: Activity
MDA-MB-231 [24] = experiment: Induction of apoptosis in human MDA-MB-231 cells harboring wild-type BRCA assessed as late apoptotic cells at 15 uM incubated for 48 hrs by Annexin V-FITC/PI staining based flow cytometry analysis (reference value: 2.38%); format: functional
MDA-MB-231 [25] = experiment: Induction of apoptosis in human MDA-MB-231 cells harboring wild-type BRCA assessed as early apoptotic cells at 15 uM incubated for 48 hrs in presence of Olaparib by Annexin V-FITC/PI staining based flow cytometry analysis (reference value: 1.60%); format: functional
MDA-MB-231 [26] = experiment: Induction of apoptosis in human MDA-MB-231 cells harboring wild-type BRCA assessed as late apoptotic cells at 15 uM incubated for 48 hrs in presence of Olaparib by Annexin V-FITC/PI staining based flow cytometry analysis (reference value: 2.38%); format: functional
MDA-MB-231 [27] = experiment: Induction of apoptosis in human MDA-MB-231 cells harboring wild-type BRCA assessed as necrotic cells at 15 uM incubated for 48 hrs by Annexin V-FITC/PI staining based flow cytometry analysis (reference value: 1.68%); format: functional
MDA-MB-231 [28] = experiment: Induction of apoptosis in human MDA-MB-231 cells harboring wild-type BRCA assessed as viable cells at 15 uM incubated for 48 hrs in presence of Olaparib by Annexin V-FITC/PI staining based flow cytometry analysis (reference value: 94.3%); format: functional; conditions: read-out: Activity
MDA-MB-231 [29] = experiment: Induction of apoptosis in human MDA-MB-231 cells harboring wild-type BRCA assessed as early apoptotic cells at 15 uM incubated for 48 hrs by Annexin V-FITC/PI staining based flow cytometry analysis (reference value: 1.60%); format: functional
MDA-MB-231 [30] = experiment: Synergistic anti-proliferative activity against human MDA-MB-231 cells harboring wild-type BRCA assessed as combination index at 10 to 40 uM in presence of olaparib; format: functional; conditions: dose 10-40 µM

Chain of Poly [ADP-ribose] polymerase 1 (P09874 whole entry): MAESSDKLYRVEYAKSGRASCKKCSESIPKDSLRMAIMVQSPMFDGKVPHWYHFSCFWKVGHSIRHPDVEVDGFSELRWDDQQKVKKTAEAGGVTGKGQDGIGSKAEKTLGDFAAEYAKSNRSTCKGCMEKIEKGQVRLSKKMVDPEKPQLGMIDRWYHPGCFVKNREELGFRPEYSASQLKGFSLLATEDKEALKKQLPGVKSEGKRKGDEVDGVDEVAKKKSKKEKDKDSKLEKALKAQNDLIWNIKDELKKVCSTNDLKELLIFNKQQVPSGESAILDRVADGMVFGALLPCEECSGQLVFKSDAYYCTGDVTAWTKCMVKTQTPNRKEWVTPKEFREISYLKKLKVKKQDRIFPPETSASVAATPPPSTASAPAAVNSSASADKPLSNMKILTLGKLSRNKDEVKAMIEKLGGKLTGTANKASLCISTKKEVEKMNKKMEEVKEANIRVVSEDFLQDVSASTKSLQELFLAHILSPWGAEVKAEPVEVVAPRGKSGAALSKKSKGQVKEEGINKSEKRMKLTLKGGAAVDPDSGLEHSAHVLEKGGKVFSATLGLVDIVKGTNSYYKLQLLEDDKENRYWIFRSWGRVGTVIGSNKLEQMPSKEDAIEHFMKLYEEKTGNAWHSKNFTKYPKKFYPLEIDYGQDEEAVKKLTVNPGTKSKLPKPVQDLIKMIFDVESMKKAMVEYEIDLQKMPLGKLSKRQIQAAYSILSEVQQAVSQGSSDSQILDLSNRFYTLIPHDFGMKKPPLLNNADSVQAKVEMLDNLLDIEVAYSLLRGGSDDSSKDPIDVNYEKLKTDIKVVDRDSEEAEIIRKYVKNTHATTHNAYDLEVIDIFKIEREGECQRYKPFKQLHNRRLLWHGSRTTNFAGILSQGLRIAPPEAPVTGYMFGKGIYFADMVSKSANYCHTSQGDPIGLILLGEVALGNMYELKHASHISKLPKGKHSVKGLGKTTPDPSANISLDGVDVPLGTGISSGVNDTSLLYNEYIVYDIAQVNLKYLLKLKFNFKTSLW
Chain of Nicotinamide phosphoribosyltransferase (P43490 whole entry): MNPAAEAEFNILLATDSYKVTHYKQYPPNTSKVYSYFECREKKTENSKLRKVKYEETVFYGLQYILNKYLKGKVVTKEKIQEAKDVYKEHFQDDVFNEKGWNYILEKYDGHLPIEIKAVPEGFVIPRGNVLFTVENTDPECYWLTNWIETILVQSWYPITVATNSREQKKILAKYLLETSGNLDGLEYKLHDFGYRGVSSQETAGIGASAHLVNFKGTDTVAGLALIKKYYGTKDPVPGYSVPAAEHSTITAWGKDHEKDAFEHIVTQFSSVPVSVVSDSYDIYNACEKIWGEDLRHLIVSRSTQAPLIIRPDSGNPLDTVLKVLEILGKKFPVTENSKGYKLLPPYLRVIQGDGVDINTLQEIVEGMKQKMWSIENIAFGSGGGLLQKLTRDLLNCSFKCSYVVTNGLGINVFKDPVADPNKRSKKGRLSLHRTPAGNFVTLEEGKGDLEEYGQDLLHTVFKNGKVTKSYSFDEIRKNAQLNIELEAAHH

IC50 (MDA-MB-436): 1440 nM | IC50 (MDA-MB-231 [1]): 4.17 µM | IC50 [2]: 0.9 nM | IC50 [3]: 10 nM
SMILES: O=C(/C=C/c1cccnc1)NCCCCN1CCN(C(=O)c2cc(Cc3n[nH]c(=O)c4ccccc34)ccc2F)CC1

IC50 [2]: 0.6 nM | IC50 [3]: 68 nM
SMILES: O=C(/C=C/c1cccnc1)NCCCN1CCN(C(=O)c2cc(Cc3n[nH]c(=O)c4ccccc34)ccc2F)CC1

IC50 (MDA-MB-436): 1180 nM | IC50 (MDA-MB-231 [1]): 29.9 µM
SMILES: O=C(c1cc(Cc2n[nH]c(=O)c3ccccc23)ccc1F)N1CCN(C(=O)C2CC2)CC1 [OLAPARIB]
Activity (MDA-MB-231 [4]): 12.4% | Activity (MDA-MB-231 [5]): 34.6% | viability at 10 µM (MDA-MB-231 [6]): 64% | Activity (MDA-MB-231 [7]): 0.041% | Activity (MDA-MB-231 [8]): 0.006% | Activity (MDA-MB-231 [9]): 0.023% | viability at 10 µM (MDA-MB-231 [10]): 87.5% | Activity (MDA-MB-231 [11]): 1.38%

IC50 [2]: 1 nM | IC50 [3]: 349 nM
SMILES: O=C(/C=C/c1cccnc1)NCCCCCCN1CCN(C(=O)c2cc(Cc3n[nH]c(=O)c4ccccc34)ccc2F)CC1

IC50 [2]: 1 nM | IC50 [3]: 72 nM
SMILES: O=C(NCCCCN1CCN(C(=O)c2cc(Cc3n[nH]c(=O)c4ccccc34)ccc2F)CC1)c1ccc2nccn2c1

IC50 (MDA-MB-436): 1120 nM | IC50 (MDA-MB-231 [1]): 2.54 µM | IC50 [2]: 1.6 nM | IC50 [3]: 14 nM
SMILES: O=C(/C=C/c1cccnc1)NCCCCCN1CCN(C(=O)c2cc(Cc3n[nH]c(=O)c4ccccc34)ccc2F)CC1

IC50 [2]: 1.8 nM
SMILES: O=C(NCCCCCN1CCN(C(=O)c2cc(Cc3n[nH]c(=O)c4ccccc34)ccc2F)CC1)c1ccc2nccn2c1

IC50 (MDA-MB-436): 960 nM | IC50 (MDA-MB-231 [1]): 0.7 µM | IC50 [2]: 0.8 nM | IC50 [3]: 18 nM
SMILES: O=C(NCCCCCCN1CCN(C(=O)c2cc(Cc3n[nH]c(=O)c4ccccc34)ccc2F)CC1)c1ccc2nccn2c1
Activity (MDA-MB-231 [4]): 44.2% | Activity (MDA-MB-231 [12]): Active | Activity (MDA-MB-231 [13]): Dose-dependent-effect | Activity (MDA-MB-231 [14]): 0.031% | Activity (MDA-MB-231 [7]): 6.09% | Activity (MDA-MB-231 [8]): 0.41% | Activity (MDA-MB-231 [15]): 1.84% | Activity (MDA-MB-231 [16]): Active | Activity (MDA-MB-231 [17]): Active | viability at 10 µM (MDA-MB-231 [10]): 49.3% | viability at 5 µM (MDA-MB-231 [18]): 68.3% | Activity (MDA-MB-231 [19]): 29.8% | Activity (MDA-MB-231 [20]): Active | Activity (MDA-MB-231 [21]): Active

IC50 (MDA-MB-436): 34200 nM | IC50 (MDA-MB-231 [1]): 50.9 µM
SMILES: O=C(NCc1ccc(S(=O)(=O)c2cc(F)cc(F)c2)cc1)c1ccc2nccn2c1
Activity (MDA-MB-231 [22]): 0.023% | viability at 15 µM (MDA-MB-231 [23]): 82.7% | Activity (MDA-MB-231 [24]): 0.19% | Activity (MDA-MB-231 [25]): 34.6% | Activity (MDA-MB-231 [26]): 1.38% | Activity (MDA-MB-231 [27]): 0.023% | viability at 15 µM (MDA-MB-231 [28]): 64% | Activity (MDA-MB-231 [29]): 17% | CI (MDA-MB-231 [30]): <1

IC50 [3]: 93 nM
SMILES: O=C(/C=C/c1cccnc1)NCCN1CCN(C(=O)c2cc(Cc3n[nH]c(=O)c4ccccc34)ccc2F)CC1
